These compounds were tested on KMO (assay: KMO activity assay: L-Kynurenine hydroxylation to 3-Hydroxy-Kynurenine, quantified by LC/MS). Conditions: compound at 10 uM; footnote: some portion of activity of amides may be due to contribution of acid precursor.
Assay type: biochemical
Method: A generalized procedure for monitoring L-Kynurenine (KYN) hydroxylation to form product 3-Hydroxy-Kynurenine (3OH-KYN) by LC/MS is described below. Product is quantified by multiple reaction monitoring using MS.
A method of monitoring L-Kynurenine (KYN) hydroxylation to form product 3-Hydroxy-Kynurenine (3OH-KYN) by LC/MS is described below. Product is quantified by multiple reaction monitoring.
• Compound: Stock concentrations: 10 mM in 100% DMSO • Enzyme: KMO enzyme prepared at Evotec via mitochondria isolation from CHO-GST HIS KMO cells • Substrate: L-Kynurenine (Sigma: Cat #K3750) • [stock concentration: 10 mM in 100 mM potassium phosphate buffer, pH 7.4]
A method of monitoring L-Kynurenine (KYN) hydroxylation to form 3-Hydroxy-Kynurenine (3OH-KYN) by LC/MS is described. Product is quantified by multiple reaction monitoring (MRM method).

Q: For `O=C1CN(C(=O)CNC(=O)c2cc(-c3ccc(Cl)c(Cl)c3)ncn2)CCN1` [6-(3,4-Dichloro-phenyl)-pyrimidine-4-carboxylic acid [2-oxo-2-(3-oxo-piperazin-1-yl)-ethyl]-amide], which “% Inhibition at 10 uM” value is on record?
A: The value was 62.23%.

Q: How did the “% Inhibition at 10 uM” value turn out when `CC1CN(c2cccc(NC(=O)c3cc(-c4ccc(Cl)c(Cl)c4)ncn3)c2)CC(C)O1` (centres unmarked) [6-(3,4-Dichloro-phenyl)-pyrimidine-4-carboxylic acid [3-(2,6-dimethyl-morpholin-4-yl)-phenyl]-amide] was run?
A: The value was 57.56%.

Q: `CN1CCN(c2cccc(NC(=O)c3cc(-c4ccc(Cl)c(Cl)c4)ncn3)c2)CC1.Cl` [6-(3,4-Dichloro-phenyl)-pyrimidine-4-carboxylic acid [3-(4-methyl-piperazin-1-yl)-phenyl]-amide hydrochloride salt] was tested. Which “% Inhibition at 10 uM” value did it give?
A: The value was 85.89%.

Q: Which “% Inhibition at 10 uM” value does the source give for `CN1CCN(c2cccc(NC(=O)c3cc(-c4ccc(Cl)c(Cl)c4)ncn3)c2)CC1` [6-(3,4-Dichloro-phenyl)-pyrimidine-4-carboxylic acid [3-(4-methyl-piperazin-1-yl)-phenyl]-amide] here?
A: The value was 75.48%.

Q: How did the “% Inhibition at 10 uM” value turn out when `CC1CN(c2ccc(NC(=O)c3cc(-c4ccc(Cl)c(Cl)c4)ncn3)cc2)CC(C)O1.Cl` (centres unmarked) [6-(3,4-Dichloro-phenyl)-pyrimidine-4-carboxylic acid [4-(2,6-dimethyl-morpholin-4-yl)-phenyl]-amide hydrochloride salt] was run?
A: Its value is 97.61%.

Q: With `Cl.O=C(Nc1ccc(OCCN2CCOCC2)cc1)c1cc(-c2ccc(Cl)c(Cl)c2)ncn1` [6-(3,4-Dichloro-phenyl)-pyrimidine-4-carboxylic acid [4-(2-morpholin-4-yl-ethoxy)-phenyl]-amide hydrochloride salt] as the compound, how does the “% Inhibition at 10 uM” value read?
A: The value was 90.48%.

Q: Which “% Inhibition at 10 uM” value does the source give for `O=C(Nc1ccc(OCCN2CCOCC2)cc1)c1cc(-c2ccc(Cl)c(Cl)c2)ncn1` [6-(3,4-Dichloro-phenyl)-pyrimidine-4-carboxylic acid [4-(2-morpholin-4-yl-ethoxy)-phenyl]-amide] here?
A: Its value is 100.44%.

Q: `CN1CCN(c2ccc(NC(=O)c3cc(-c4ccc(Cl)c(Cl)c4)ncn3)cc2)CC1.Cl` [6-(3,4-Dichloro-phenyl)-pyrimidine-4-carboxylic acid [4-(4-methyl-piperazin-1-yl)-phenyl]-amide hydrochloride salt] was tested. Which “% Inhibition at 10 uM” value did it give?
A: Its value is 89.6%.

Q: `CC(C)(O)c1nnc(NC(=O)c2cc(-c3ccc(Cl)c(Cl)c3)ncn2)o1` [6-(3,4-Dichloro-phenyl)-pyrimidine-4-carboxylic acid [5-(1-hydroxy-1-methyl-ethyl)-[1,3,4]oxadiazol-2-yl]-amide] was tested. Which “% Inhibition at 10 uM” value did it give?
A: The value was 102.115%.

Q: Which “% Inhibition at 10 uM” value does the source give for `Cl.O=C(Nc1ccc(OCCN2CCOCC2)nc1)c1cc(-c2ccc(Cl)c(Cl)c2)ncn1` [6-(3,4-Dichloro-phenyl)-pyrimidine-4-carboxylic acid [6-(2-morpholin-4-yl-ethoxy)-pyridin-3-yl]-amide hydrochloride salt] here?
A: Its value is 86.37%.

Q: How did the “% Inhibition at 10 uM” value turn out when `CNC(=O)c1cc(-c2ccc(Cl)c(Cl)c2)ncn1` [6-(3,4-Dichloro-phenyl)-pyrimidine-4-carboxylic acid methylamide] was run?
A: Its value is 100.31%.

Q: With `O=C(Nc1ncco1)c1cc(-c2ccc(Cl)c(Cl)c2)ncn1` [6-(3,4-Dichloro-phenyl)-pyrimidine-4-carboxylic acid oxazol-2-yl-amide] as the compound, how does the “% Inhibition at 10 uM” value read?
A: The value was 101.04%.

Q: Which “% Inhibition at 10 uM” value does the source give for `O=C(Nc1cnccn1)c1cc(-c2ccc(Cl)c(Cl)c2)ncn1` [6-(3,4-Dichloro-phenyl)-pyrimidine-4-carboxylic acid pyrazin-2-yl-amide] here?
A: Its value is 100.28%.

Q: With `O=C(Nc1cccnn1)c1cc(-c2ccc(Cl)c(Cl)c2)ncn1` [6-(3,4-Dichloro-phenyl)-pyrimidine-4-carboxylic acid pyridazin-3-yl-amide] as the compound, how does the “% Inhibition at 10 uM” value read?
A: Its value is 100.38%.

Q: For `Cc1nc(C(=O)O)cc(-c2ccc(F)c(F)c2)n1` [6-(3,4-Difluoro-phenyl)-2-methyl-pyrimidine-4-carboxylic acid], which “% Inhibition at 10 uM” value is on record?
A: The value was 100%.

Q: For `C[C@H](NC(=O)c1cc(-c2ccc(F)c(F)c2)ncn1)c1ccccc1` [6-(3,4-Difluoro-phenyl)-pyrimidine-4-carboxylic acid ((S)-1-phenyl-ethyl)-amide], which “% Inhibition at 10 uM” value is on record?
A: Its value is 100.39%.

Q: How did the “% Inhibition at 10 uM” value turn out when `CON(C)C(=O)c1cc(-c2ccc(Cl)c(Cl)c2)ncn1` [6-(3,4-dichloro-phenyl)-pyrimidine-4-carboxylic acid methoxy-methyl-amide] was run?
A: Its value is 103.74%.

Q: With `O=C(O)c1ncnc(-c2ccc(Cl)c(Cl)c2)c1CO` [6-(3,4-dichlorophenyl)-5-(hydroxymethyl)pyrimidine-4-carboxylate] as the compound, how does the “% Inhibition at 10 uM” value read?
A: Its value is 95%.

Q: `O=C(NO)c1cc(-c2ccc(Cl)c(Cl)c2)ncn1` [6-(3,4-dichlorophenyl)-N-hydroxypyrimidine-4-carboxamide] was tested. Which “% Inhibition at 10 uM” value did it give?
A: Its value is 73%.

Q: Which “% Inhibition at 10 uM” value does the source give for `Cc1nnc(NC(=O)c2cc(-c3cccc(Br)c3)ncn2)o1` [6-(3-Bromo-phenyl)-pyrimidine-4-carboxylic acid (5-methyl-[1,3,4]oxadiazol-2-yl)-amide] here?
A: The value was 102.59%.

Q: With `O=C(O)c1cc(-c2cccc(Br)c2)ncn1` [6-(3-Bromo-phenyl)-pyrimidine-4-carboxylic acid] as the compound, how does the “% Inhibition at 10 uM” value read?
A: Its value is 102.1%.

Q: `O=C(Nc1cccnc1)c1cc(-c2cccc(Cl)c2F)ncn1` [6-(3-Chloro-2-fluoro-phenyl)-pyrimidine-4-carboxylic acid pyridin-3-yl-amide] was tested. Which “% Inhibition at 10 uM” value did it give?
A: The value was 100.83%.

Q: For `C[C@H](NC(=O)c1cc(-c2ccc(F)c(Cl)c2)ncn1)c1ccccc1` [6-(3-Chloro-4-fluoro-phenyl)-pyrimidine-4-carboxylic acid ((S)-1-phenyl-ethyl)-amide], which “% Inhibition at 10 uM” value is on record?
A: The value was 89.07%.

Q: Which “% Inhibition at 10 uM” value does the source give for `Cc1noc(C)c1NC(=O)c1cc(-c2cccc(Cl)c2)ncn1` [6-(3-Chloro-phenyl)-pyrimidine-4-carboxylic acid (3,5-dimethyl-isoxazol-4-yl)-amide] here?
A: The value was 89.92%.

Q: For `C[C@H](NC(=O)c1cc(-c2cccc(Cl)c2)ncn1)c1ccncc1` [6-(3-Chloro-phenyl)-pyrimidine-4-carboxylic acid ((S)-1-pyridin-4-yl-ethyl)-amide], which “% Inhibition at 10 uM” value is on record?
A: Its value is 96.86%.

Q: How did the “% Inhibition at 10 uM” value turn out when `C[C@H](NC(=O)c1cc(-c2cccc(F)c2)ncn1)c1ccccc1` [6-(3-Fluoro-phenyl)-pyrimidine-4-carboxylic acid ((S)-1-phenyl-ethyl)-amide] was run?
A: The value was 90.15%.

Q: How did the “% Inhibition at 10 uM” value turn out when `O=C(Nc1cncnc1)c1cc(-c2cccc(F)c2)ncn1` [6-(3-Fluoro-phenyl)-pyrimidine-4-carboxylic acid pyrimidin-5-yl-amide] was run?
A: The value was 81.88%.

Q: Which “% Inhibition at 10 uM” value does the source give for `Cc1ccc(NC(=O)c2cc(-c3ccc(Cl)c(F)c3)ncn2)c(C)n1` [6-(4-Chloro-3-fluoro-phenyl)-pyrimidine-4-carboxylic acid (2,6-dimethyl-pyridin-3-yl)-amide] here?
A: The value was 52.81%.

Q: Which “% Inhibition at 10 uM” value does the source give for `C[C@H](NC(=O)c1cc(-c2ccc(Cl)c(F)c2)ncn1)c1ccccc1` [6-(4-Chloro-3-fluoro-phenyl)-pyrimidine-4-carboxylic acid ((S)-1-phenyl-ethyl)-amide] here?
A: Its value is 46.62%.

Q: Which “% Inhibition at 10 uM” value does the source give for `C[C@H](NC(=O)c1cc(-c2ccc(Cl)cc2)ncn1)c1ccccc1` [6-(4-Chloro-phenyl)-pyrimidine-4-carboxylic acid ((S)-1-phenyl-ethyl)-amide] here?
A: Its value is 68.94%.

Q: With `O=C(Nc1cccnc1)c1cc(-c2ccc(Cl)cc2)ncn1` [6-(4-Chloro-phenyl)-pyrimidine-4-carboxylic acid pyridin-3-yl-amide] as the compound, how does the “% Inhibition at 10 uM” value read?
A: Its value is 67.93%.

Q: `O=C(Nc1cncnc1)c1cc(-c2ccc(Cl)cc2)ncn1` [6-(4-Chloro-phenyl)-pyrimidine-4-carboxylic acid pyrimidin-5-ylamide] was tested. Which “% Inhibition at 10 uM” value did it give?
A: The value was 56.49%.

Q: Which “% Inhibition at 10 uM” value does the source give for `C[C@H](NC(=O)c1cc(-c2cc(Cl)ccc2F)ncn1)c1ccccc1` [6-(5-Chloro-2-fluoro-phenyl)-pyrimidine-4-carboxylic acid ((S)-1-phenyl-ethyl)-amide] here?
A: Its value is 68.66%.

Q: For `O=C(Nc1cccnc1)c1cc(-c2cc(Cl)ccc2F)ncn1` [6-(5-Chloro-2-fluoro-phenyl)-pyrimidine-4-carboxylic acid pyridin-3-yl-amide], which “% Inhibition at 10 uM” value is on record?
A: The value was 84.21%.

Q: `O=C(O)c1cc(-c2ccc3ccccc3c2)ncn1` [6-Naphthalen-2-yl-pyrimidine-4-carboxylic acid] was tested. Which “% Inhibition at 10 uM” value did it give?
A: The value was 96%.

Q: Which “% Inhibition at 10 uM” value does the source give for `N[C@@H](CCCCNC(=O)c1cc(-c2ccc(Cl)c(Cl)c2)ncn1)C(=O)O` [(2S)-2-amino-6-{[6-(3,4-dichlorophenyl)pyrimidin-4-yl]formamido}hexanoic acid] here?
A: The value was 85%.

Q: How did the “% Inhibition at 10 uM” value turn out when `O=C1NC(=O)[C@@H]2CN(C(=O)c3cc(-c4ccc(Cl)c(Cl)c4)ncn3)C[C@H]12` [(3aS,6aR)-5-[6-(3,4-Dichloro-phenyl)-pyrimidine-4-carbonyl]-tetrahydro-pyrrolo[3,4-c]pyrrole-1,3-dione] was run?
A: The value was 95.73%.

Q: Which “% Inhibition at 10 uM” value does the source give for `O=C(c1cc(-c2ccc(Cl)c(Cl)c2)ncn1)N1CCc2ccc(Cl)cc21` [(6-Chloro-2,3-dihydro-indol-1-yl)-[6-(3,4-dichloro-phenyl)-pyrimidin-4-yl]-methanone] here?
A: Its value is 98.22%.

Q: For `N[C@H]1CCN(C(=O)c2cc(-c3ccc(Cl)c(Cl)c3)ncn2)C1` [((S)-3-amino-pyrrolidin-1-yl)-[6-(3,4-dichloro-phenyl)-pyrimidin-4-yl]-methanone], which “% Inhibition at 10 uM” value is on record?
A: Its value is 93.99%.

Q: How did the “% Inhibition at 10 uM” value turn out when `NC(=O)[C@H]1CCCN1C(=O)c1cc(-c2ccc(Cl)c(Cl)c2)ncn1` [(R)-1-[6-(3,4-Dichloro-phenyl)-pyrimidine-4-carbonyl]-pyrrolidine-2-carboxylic acid amide] was run?
A: The value was 101%.

Q: With `O=C(N[C@H](CO)C(=O)O)c1cc(-c2ccc(Cl)c(Cl)c2)ncn1` [(R)-2-{[6-(3,4-Dichloro-phenyl)-pyrimidine-4-carbonyl]-amino}-3-hydroxy-propionic acid] as the compound, how does the “% Inhibition at 10 uM” value read?
A: The value was 91.12%.

Source: patent US9428464B2, “Kynurenine-3-monooxygenase inhibitors, pharmaceutical compositions, and methods of use thereof” (CHDI Foundation, Inc., priority 2011, dated 2016)
